Measurements as given in patent US20110178070A1, “PI3K/mTOR INHIBITORS” (TAKEDA PHARMACEUTICAL COMPANY LIMITED, priority 2008, published 2011).

What follows are molecules tested against mTOR (Homo sapiens, UniProt P42345) (assay: Z-Lyte biochemical assay, inhibition of mTOR (Example A)). Settings: IC50 (nM) mTOR, Table 1; 10 μM ATP.
Sequence of mTOR (P42345 1360-2549): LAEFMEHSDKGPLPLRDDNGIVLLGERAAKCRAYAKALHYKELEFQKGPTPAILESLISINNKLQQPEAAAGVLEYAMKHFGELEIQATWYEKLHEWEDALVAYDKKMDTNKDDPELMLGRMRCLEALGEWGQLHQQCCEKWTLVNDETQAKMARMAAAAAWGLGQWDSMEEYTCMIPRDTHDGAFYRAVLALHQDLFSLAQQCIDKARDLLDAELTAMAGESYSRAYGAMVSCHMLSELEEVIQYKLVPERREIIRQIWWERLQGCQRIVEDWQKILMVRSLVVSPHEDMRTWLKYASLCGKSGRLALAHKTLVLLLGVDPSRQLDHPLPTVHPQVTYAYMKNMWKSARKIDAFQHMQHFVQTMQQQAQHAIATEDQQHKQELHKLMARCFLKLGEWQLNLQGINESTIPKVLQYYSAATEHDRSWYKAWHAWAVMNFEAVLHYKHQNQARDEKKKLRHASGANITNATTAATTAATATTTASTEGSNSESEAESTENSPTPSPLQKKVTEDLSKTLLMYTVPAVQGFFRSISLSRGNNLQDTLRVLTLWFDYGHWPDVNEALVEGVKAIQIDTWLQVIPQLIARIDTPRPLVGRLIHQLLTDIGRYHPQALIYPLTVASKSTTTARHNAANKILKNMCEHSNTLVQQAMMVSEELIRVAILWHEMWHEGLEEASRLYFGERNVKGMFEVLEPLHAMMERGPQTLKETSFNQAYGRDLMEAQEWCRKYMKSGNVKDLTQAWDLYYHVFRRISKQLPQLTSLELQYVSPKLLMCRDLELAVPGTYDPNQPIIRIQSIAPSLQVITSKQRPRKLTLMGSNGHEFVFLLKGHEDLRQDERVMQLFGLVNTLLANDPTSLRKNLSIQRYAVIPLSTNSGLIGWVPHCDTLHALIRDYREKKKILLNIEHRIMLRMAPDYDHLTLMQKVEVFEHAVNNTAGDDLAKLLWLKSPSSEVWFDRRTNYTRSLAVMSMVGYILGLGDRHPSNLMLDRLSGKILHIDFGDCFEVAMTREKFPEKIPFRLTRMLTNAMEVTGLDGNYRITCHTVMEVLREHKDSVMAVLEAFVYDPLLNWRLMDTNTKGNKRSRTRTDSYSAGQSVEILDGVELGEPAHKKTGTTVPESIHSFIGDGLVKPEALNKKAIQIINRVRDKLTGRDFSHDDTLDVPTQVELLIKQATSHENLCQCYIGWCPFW
Experimental: The inhibitory property of a compound relative to mTOR catalysis was determined by using the Z-Lyte™ biochemical assay conducted by Invitrogen Corporation (Madison, Wis.), which employs a fluorescence-based, coupled-enzyme format and is based on the differential sensitivity of phosphorylated and non-phosphorylated peptides to proteolytic cleavage. The peptide substrate is labeled with two fluorophores—one at each end—that make up a FRET pair.
In the primary reaction, the kinase transfers the gamma-phosphate of ATP to a single tyrosine, serine or threonine residue in a synthetic FRET-peptide. In the secondary reaction, a site-specific protease recognizes and cleaves non-phosphorylated FRET-peptides. Phosphorylation of FRET-peptides suppresses cleavage by the Development Reagent. Cleavage disrupts FRET between the donor (i.e., coumarin) and acceptor (i.e., fluorescein) fluorophores on the FRET-peptide, whereas uncleaved, phosphorylated FRET-peptides maintain FRET. A ratio metric method, which calculates the ratio (the Emission Ratio) of donor emission to acceptor emission after excitation of the donor fluorophore at 400 nm, is used to quantitate reaction progress, as shown in the equation below.
A significant benefit of this ratio metric method for quantitating reaction progress is the elimination of well-to-well variations in FRET-peptide concentration and signal intensities. […] Both cleaved and uncleaved FRET-peptides contribute to the fluorescence signals and therefore to the Emission Ratio. The extent of phosphorylation of the FRET-peptide can be calculated from the Emission Ratio.
Recombinant human mTOR enzyme (amino acids 1360-2549), GST-tagged, expressed in and purified from insect cells (Invitrogen Corp. Cat. #PV4753; also known as FRAP1) was used for the assay. The 2×FRAP1 (mTOR)/Ser/Thr 11 Peptide Mixture (Invitrogen Corp.) was prepared in buffer containing 50 mM HEPES pH 7.5, 0.01% BRIJ-35, 10 mM MnCl2, 1 mM EGTA, 2 mM DTT, and 0.02% NaN3. The final 10 μL Kinase Reaction consisted of 7.2-58.1 ng FRAP1 (mTOR) and 2 μM Ser/Thr 11 Peptide in buffer containing 50 mM HEPES pH 7.5, 0.01% BRIJ-35, 5 mM MgCl2, 5 mM MnCl2, 1 mM EGTA, 1 mM DTT, and 0.01% NaN3.
Test compounds are screened in 1% DMSO (final) in the well. For 10 point titrations, 3-fold serial dilutions are conducted from the starting concentration. The Ser/Thr 11 Peptide/Kinase Mixture was diluted to a 2× working concentration in buffer containing 50 mM HEPES pH 7.5, 0.01% BRIJ-35, 10 mM MnCl2, 1 mM EGTA, 2 mM DTT, and 0.02% NaN3. The ATP solution was diluted to a 4× working concentration in buffer containing 50 mM HEPES pH 7.5, 0.01% BRIJ-35, 10 mM MgCl2, and 1 mM EGTA.
After the 1 hour Kinase Reaction incubation, 5 μL of a 1:16 dilution of Development Reagent B was added, and the development reaction was allowed to proceed for an additional 1 hour at room temperature. The assay plate was then read on a fluorescence plate reader and the data analyzed as outlined above.
IC50 values were calculated by non-linear least squares curve fitting using XLfit from IDBS to fit the results to model number 205 (sigmoidal dose-response model).
`CC(=O)Nc1nc2ccc(-c3ccc4[nH]ccc4c3)nc2s1` [Example 2, N-(5-(1H-Indol-5-yl)thiazolo[5,4-b]pyridin-2-yl)acetamide] was tested, and the IC50 was 100 to 1000 nM.
In the case of `CC(=O)Nc1nc2ccc(-c3ccc4[nH]ncc4c3)nc2s1` [Example 3, N-(5-(1H-Indazol-5-yl)thiazolo[5,4-b]pyridin-2-yl)acetamide], the IC50 was 100 to 1000 nM.
Molecule `CC(=O)Nc1ccc(-c2ccc3nc(NC(C)=O)sc3n2)cn1` [Example 4, N-(5-(6-Acetamidopyridin-3-yl)thiazolo[5,4-b]pyridin-2-yl)acetamide] has an IC50 of 100 to 1000 nM.
In the case of `CC(=O)Nc1nc2ccc(-c3ccc(C(C)(C)C#N)cc3)nc2s1` [Example 5, N-(5-(4-(2-Cyanopropan-2-yl)phenyl)thiazolo[5,4-b]pyridin-2-yl)acetamide], the IC50 was over 1000 nM.
In the case of `CNC(=O)c1ccc(-c2ccc3nc(NC(C)=O)sc3n2)cn1` [Example 6, 5-(2-Acetamidothiazolo[5,4-b]pyridin-5-yl)-N-methylpicolinamide], the IC50 was 100 to 1000 nM.
`CC(=O)Nc1nc2ccc(-c3cnc(Cl)c(NS(=O)(=O)c4ccccc4)c3)nc2s1` [Example 7, N-(5-(6-Chloro-5-(phenylsulfonamido)pyridin-3-yl)thiazolo[5,4-b]pyridin-2-yl)acetamide] gave an IC50 of under 100 nM.
Work on `CC(=O)Nc1nc2ccc(-c3cnc(Cl)c(NS(C)(=O)=O)c3)nc2s1` [Example 8, N-(5-(6-Chloro-5-(methylsulfonamido)pyridin-3-yl)thiazolo[5,4-b]pyridin-2-yl)acetamide] yielded an IC50 of under 100 nM.
`CS(=O)(=O)Nc1cc(-c2ccc3nc(NC(=O)C4CC4)sc3n2)cnc1Cl` [Example 9, N-(5-(6-Chloro-5-(methylsulfonamido)pyridin-3-yl)thiazolo[5,4-b]pyridin-2-yl)cyclopropanecarboxamide] gave an IC50 of under 100 nM.
`CC(=O)Nc1nc2ccc(-c3ccccc3)cc2s1` [Example 10, N-(6-Phenylbenzo[d]thiazol-2-yl)acetamide] showed an IC50 of over 1000 nM.
`CC(=O)Nc1nc2ccc(-c3cccnc3)cc2s1` [Example 11, N-(6-(Pyridin-3-yl)benzo[d]thiazol-2-yl)acetamide] was tested, and the IC50 was 100 to 1000 nM.
For `CC(=O)Nc1nc2ccc(-c3ccc4[nH]ccc4c3)cc2s1` [Example 12, N-(6-(1H-Indol-5-yl)benzo[d]thiazol-2-yl)acetamide], the IC50 was over 1000 nM.
Molecule `CC(=O)Nc1nc2ccc(-c3ccc(N)cc3)cc2s1` [Example 13, N-(6-(4-Aminophenyl)benzo[d]thiazol-2-yl)acetamide] has an IC50 of over 1000 nM.
`CC(=O)Nc1nc2ccc(-c3cccc4[nH]ccc34)cc2s1` [Example 14, N-(6-(1H-Indol-4-yl)benzo[d]thiazol-2-yl)acetamide] gave an IC50 of over 1000 nM.
In the case of `CC(=O)Nc1nc2ccc(-c3ccc4[nH]cc(C=O)c4c3)cc2s1` [Example 15, N-(6-(3-Formyl-1H-indol-5-yl)benzo[d]thiazol-2-yl)acetamide], the IC50 was under 100 nM.
`CC(=O)Nc1nc2ccc(-c3ccc4[nH]cc(C#N)c4c3)cc2s1` [Example 16, N-(6-(3-Cyano-1H-indol-5-yl)benzo[d]thiazol-2-yl)acetamide] was tested, and the IC50 was 100 to 1000 nM.
Work on `CC(=O)Nc1nc2ccc(-c3ccc4[nH]cc(C(N)=O)c4c3)cc2s1` [Example 17, 5-(2-Acetamidobenzo[d]thiazol-6-yl)-1H-indole-3-carboxamide] yielded an IC50 of over 1000 nM.
`CC(=O)Nc1nc2ccc(-c3cnc(Cl)c(NS(=O)(=O)c4ccccc4)c3)cc2s1` [Example 18, N-(6-(6-Chloro-5-(phenylsulfonamido)pyridin-3-yl)benzo[d]thiazol-2-yl)acetamide] showed an IC50 of under 100 nM.
In the case of `CC(=O)Nc1nc2ccc(-c3ccc(N)cc3C(F)(F)F)cc2s1` [Example 19, N-(6-(4-Amino-2-(trifluoromethyl)phenyl)benzo[d]thiazol-2-yl)acetamide], the IC50 was over 1000 nM.
Molecule `CC(=O)Nc1nc2ccc(-c3cnc(N)cn3)cc2s1` [Example 20, N-(6-(5-Aminopyrazin-2-yl)benzo[d]thiazol-2-yl)acetamide] has an IC50 of 100 to 1000 nM.
Work on `CC(=O)Nc1nc2ccc(-c3ccc4nccn4c3)nc2s1` [Example 22, N-(5-(Imidazo[1,2-a]pyridin-6-yl)thiazolo[5,4-b]pyridin-2-yl)acetamide] yielded an IC50 of 100 to 1000 nM.
For `CC(=O)Nc1nc2ccc(-c3ccc(C#N)nc3)nc2s1` [Example 23, N-(5-(6-Cyanopyridin-3-yl)thiazolo[5,4-b]pyridin-2-yl)acetamide], the IC50 was 100 to 1000 nM.
Molecule `CC(=O)Nc1nc2ccc(-c3cnc4[nH]ccc4c3)nc2s1` [Example 24, N-(5-(1H-Pyrrolo[2,3-b]pyridin-5-yl)thiazolo[5,4-b]pyridin-2-yl)acetamide] has an IC50 of under 100 nM.
`CC(=O)Nc1nc2ccc(-c3cnc4cc[nH]c4c3)nc2s1` [Example 25, N-(5-(1H-Pyrrolo[3,2-b]pyridin-6-yl)thiazolo[5,4-b]pyridin-2-yl)acetamide] gave an IC50 of under 100 nM.
In the case of `CONC(=O)c1cccc(-c2ccc3nc(NC(C)=O)sc3n2)c1` [Example 27, 3-(2-Acetamidothiazolo[5,4-b]pyridin-5-yl)-N-methoxybenzamide], the IC50 was over 1000 nM.
In the case of `CONC(=O)c1ccc(-c2ccc3nc(NC(C)=O)sc3n2)cc1` [Example 30, 4-(2-Acetamidothiazolo[5,4-b]pyridin-5-yl)-N-methoxybenzamide], the IC50 was 100 to 1000 nM.
Work on `CC(=O)Nc1nc2ccc(-c3ccc4c(c3)CC(=O)N4)nc2s1` [Example 31, N-(5-(2-oxoindolin-5-yl)thiazolo[5,4-b]pyridin-2-yl)acetamide] yielded an IC50 of 100 to 1000 nM.
`CC(=O)Nc1nc2ccc(-c3ccncc3)nc2s1` [Example 33, N-(5-(Pyridin-4-yl)thiazolo[5,4-b]pyridin-2-yl)acetamide] was tested, and the IC50 was over 1000 nM.
With `CC(=O)Nc1nc2ccc(-c3ccccc3N)nc2s1` [Example 34, N-(5-(2-Aminophenyl)thiazolo[5,4-b]pyridin-2-yl)acetamide] the IC50 was over 1000 nM.
`CNC(=O)c1ccc(-c2ccc3nc(NC(C)=O)sc3n2)cc1` [Example 35, 4-(2-Acetamidothiazolo[5,4-b]pyridin-5-yl)-N-methylbenzamide] gave an IC50 of under 100 nM.
`CC(=O)Nc1ccc(-c2ccc3nc(NC(C)=O)sc3n2)cc1` [Example 36, N-(5-(4-Acetamidophenyl)thiazolo[5,4-b]pyridin-2-yl)acetamide] gave an IC50 of 100 to 1000 nM.
`CC(=O)Nc1nc2ccc(-c3ccc(C(=O)NC4CC4)cc3)nc2s1` [Example 37, 4-(2-Acetamidothiazolo[5,4-b]pyridin-5-yl)-N-cyclopropylbenzamide] gave an IC50 of 100 to 1000 nM.
`CC(=O)Nc1nc2ccc(-c3ccc(C(N)=O)cc3)nc2s1` [Example 38, 4-(2-Acetamidothiazolo[5,4-b]pyridin-5-yl)benzamide] gave an IC50 of under 100 nM.
With `CC(=O)Nc1ccc(-c2ccc3nc(NC(C)=O)sc3c2)cc1` [Example 39, N-(4-(2-Acetamidobenzo[d]thiazol-6-yl)phenyl)acetamide] the IC50 was 100 to 1000 nM.
Work on `CNC(=O)c1cccc(-c2ccc3nc(NC(C)=O)sc3c2)c1` [Example 40, 3-(2-Acetamidobenzo[d]thiazol-6-yl)-N-methylbenzamide] yielded an IC50 of over 1000 nM.
For `CC(=O)Nc1nc2ccc(-c3ccc(-c4nnc[nH]4)cc3)nc2s1` [Example 42, N-(5-(4-(4H-1,2,4-Triazol-3-yl)phenyl)thiazolo[5,4-b]pyridin-2-yl)acetamide], the IC50 was under 100 nM.
`CCS(=O)(=O)Nc1cc(-c2ccc3nc(NC(C)=O)sc3n2)cnc1Cl` [Example 47, N-(5-(6-Chloro-5-(ethylsulfonamido)pyridin-3-yl)thiazolo[5,4-b]pyridin-2-yl)acetamide] was tested, and the IC50 was under 100 nM.
In the case of `CC(=O)Nc1nc2ccc(-c3cnc(Cl)c(NS(C)(=O)=O)c3)cc2s1` [Example 48, N-(6-(6-Chloro-5-(methylsulfonamido)pyridin-3-yl)benzo[d]thiazol-2-yl)acetamide], the IC50 was under 100 nM.
`CC(=O)Nc1nc2ccc(-c3cnc(Cl)c(NS(=O)(=O)C4CC4)c3)nc2s1` [Example 49, N-(5-(6-Chloro-5-(cyclopropanesulfonamido)pyridin-3-yl)thiazolo[5,4-b]pyridin-2-yl)acetamide] showed an IC50 of over 1000 nM.

What follows are molecules tested against T1, PI3Kalpha (PIK3CA/PIK3R1, p110 alpha/p85 alpha) (Homo sapiens, UniProt P42336) (assay: Adapta universal kinase assay, inhibition of PI3Kalpha (Example B)). Settings: Table 1; 25 μM ATP; read-out: IC50 (nM) PI3Kα.
T1 construct: recombinant human, full length, N-terminal His-tagged phosphoinositide-3-kinase catalytic subunit alpha polypeptide; His (N); purchased Invitrogen Corp. PV4788; host or cells: insect cells
T1 sequence (P42336 whole entry): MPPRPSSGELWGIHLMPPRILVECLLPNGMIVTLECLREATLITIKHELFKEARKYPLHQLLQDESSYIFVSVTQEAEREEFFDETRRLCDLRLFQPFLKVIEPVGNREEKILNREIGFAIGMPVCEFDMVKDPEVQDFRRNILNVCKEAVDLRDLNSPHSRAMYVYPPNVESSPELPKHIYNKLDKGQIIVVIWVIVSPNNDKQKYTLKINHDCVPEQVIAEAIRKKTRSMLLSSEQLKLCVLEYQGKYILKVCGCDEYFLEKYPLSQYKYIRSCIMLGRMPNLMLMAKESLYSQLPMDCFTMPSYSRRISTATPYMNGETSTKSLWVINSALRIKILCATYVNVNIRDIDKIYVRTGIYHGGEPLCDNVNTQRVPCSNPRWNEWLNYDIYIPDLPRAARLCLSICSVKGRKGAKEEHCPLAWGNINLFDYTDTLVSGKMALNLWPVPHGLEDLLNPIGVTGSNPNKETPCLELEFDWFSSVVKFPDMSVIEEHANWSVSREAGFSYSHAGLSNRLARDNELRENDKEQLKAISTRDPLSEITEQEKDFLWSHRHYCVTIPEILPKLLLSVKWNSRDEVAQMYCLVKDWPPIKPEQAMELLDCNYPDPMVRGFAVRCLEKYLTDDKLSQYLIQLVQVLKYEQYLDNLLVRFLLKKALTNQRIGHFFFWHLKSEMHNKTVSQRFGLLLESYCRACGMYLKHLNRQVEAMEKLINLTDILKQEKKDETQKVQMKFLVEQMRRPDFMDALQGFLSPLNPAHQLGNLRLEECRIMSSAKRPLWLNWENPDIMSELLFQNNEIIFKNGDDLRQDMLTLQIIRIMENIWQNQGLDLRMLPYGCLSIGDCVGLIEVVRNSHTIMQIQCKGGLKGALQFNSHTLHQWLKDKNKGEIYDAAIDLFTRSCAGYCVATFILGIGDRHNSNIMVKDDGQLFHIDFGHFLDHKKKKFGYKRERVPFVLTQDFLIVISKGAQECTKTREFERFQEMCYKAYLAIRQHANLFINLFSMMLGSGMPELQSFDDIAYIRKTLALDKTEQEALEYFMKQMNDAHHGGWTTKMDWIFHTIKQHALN
T1 sequence (P27986 whole entry partner): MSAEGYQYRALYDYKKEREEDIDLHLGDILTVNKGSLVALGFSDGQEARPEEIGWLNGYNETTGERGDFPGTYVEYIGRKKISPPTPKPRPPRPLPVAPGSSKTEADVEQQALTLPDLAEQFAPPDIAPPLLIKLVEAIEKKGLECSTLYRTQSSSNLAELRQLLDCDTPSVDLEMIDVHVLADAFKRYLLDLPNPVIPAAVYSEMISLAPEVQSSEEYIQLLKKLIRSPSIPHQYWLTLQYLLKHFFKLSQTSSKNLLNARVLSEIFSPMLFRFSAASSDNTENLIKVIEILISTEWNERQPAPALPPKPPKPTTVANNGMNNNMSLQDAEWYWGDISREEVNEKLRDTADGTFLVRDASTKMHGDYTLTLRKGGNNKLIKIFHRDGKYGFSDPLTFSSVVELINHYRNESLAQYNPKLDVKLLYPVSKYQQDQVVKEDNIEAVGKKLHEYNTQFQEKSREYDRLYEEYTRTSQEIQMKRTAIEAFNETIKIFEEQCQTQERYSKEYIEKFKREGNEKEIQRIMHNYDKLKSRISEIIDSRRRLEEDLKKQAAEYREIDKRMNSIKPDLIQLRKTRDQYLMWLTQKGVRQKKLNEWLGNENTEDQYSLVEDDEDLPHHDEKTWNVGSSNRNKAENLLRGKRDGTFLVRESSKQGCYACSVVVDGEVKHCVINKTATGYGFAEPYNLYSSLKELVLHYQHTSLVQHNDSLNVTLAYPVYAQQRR
Type: biochemical
Excerpt: In contrast to ATP depletion assays, the Adapta™ assay is extremely sensitive to ADP formation such that a majority of the signal change occurs in the first 10-20% conversion of ATP to ADP. This makes the Adapta™ universal kinase assay ideally suited for use with low activity kinases.
The principle of the Adapta™ universal kinase assay is outlined below. The assay itself can be divided into two phases: a kinase reaction phase, and an ADP detection phase. In the kinase reaction phase, all components required for the kinase reaction are added to the well, and the reaction is allowed to incubate for 60 minutes. After the reaction, a detection solution consisting of a europium labeled anti-ADP antibody, an Alexa Fluor® 647 labeled ADP tracer, and EDTA (to stop the kinase reaction) is added to the assay well. ADP formed by the kinase reaction (in the absence of an inhibitor) will displace the Alexa Fluor® 647 labeled ADP tracer from the antibody, resulting in a decrease in the TR-FRET signal.
ADP formation is determined by calculating the emission ratio from the assay well. The emission ratio is calculated by dividing the intensity of the tracer (acceptor) emission by the intensity of the Eu (donor) emission at 615 nm as shown in the equation below.
Since the Adapta™ technology measures ADP formation (i.e. conversion of ATP to ADP) it can be used to measure any type of ATP hydrolysis, including intrinsic ATPase activity of kinases. In this case, the substrate is water, not a lipid or peptide (Kashem, et al., 2007, J. Biomol. Screen. 12, 1, 70-83).
The combination of recombinant human, full length, N-terminal His-tagged phosphoinositide-3-kinase catalytic subunit alpha polypeptide ([…], PI3Kalpha), expressed in and purified from insect cells along with co-expressed recombinant, full length, untagged phosphoinositide-3-kinase regulatory subunit 1 (p85 alpha) (combination also known as PIK3CA/PIK3R1; Invitrogen Corp. Cat # PV4788) was used as the enzyme for this assay.
The test compounds are screened at 1% DMSO (final) in the well. […] The PIP2:PS Substrate/Kinase Mixture was diluted 2× to working concentration in Kinase Buffer containing 50 mM HEPES pH 7.5, 0.1% CHAPS, and 1 mM EGTA. […] The Detection Mix was prepared in TR-FRET Dilution Buffer.
After the 1 hour Kinase Reaction incubation at room temperature, 5 μL of Detection Mix was added, followed by another 30 sec plate shake to ensure mixing, and the Detection Mix was allowed to equilibrate for 1 hour at room temperature.
Lipid substrates are prepared by creating lipid vesicles. In some cases, these vesicles include a carrier lipid, such as phosphatidylserine (PS). In the assay conditions section above, “PIP2:PS” refers to large unilamellar vesicles (LUVs) containing five mole percent L-α-Phosphatidylinositol-4,5-bisphosphate (PIP2) and ninety-five percent phosphatidylserine (PS), and the concentration listed refers only to the PIP2 substrate, not the PS carrier lipid.
Work on `CC(=O)Nc1nc2ccc(-c3ccc(C(C)(C)C#N)cc3)nc2s1` [Example 5, N-(5-(4-(2-Cyanopropan-2-yl)phenyl)thiazolo[5,4-b]pyridin-2-yl)acetamide] yielded an IC50 of over 1000 nM.
`CC(=O)Nc1nc2ccc(-c3cccc4[nH]ccc34)cc2s1` [Example 14, N-(6-(1H-Indol-4-yl)benzo[d]thiazol-2-yl)acetamide] showed an IC50 of over 1000 nM.
`CC(=O)Nc1nc2ccc(-c3ccc4[nH]cc(C#N)c4c3)cc2s1` [Example 16, N-(6-(3-Cyano-1H-indol-5-yl)benzo[d]thiazol-2-yl)acetamide] showed an IC50 of over 1000 nM.
